Measured values published in patent publication US10836728B2, “Substituted 3-dialkylaminomethyl-piperidin-4-yl-benzamides and methods of making and using same” (MEBIAS DISCOVERY, INC., priority 2017, dated 2020).
Like-named read-outs stand apart in the source and are kept apart here.

What was measured:
human OPRM1 (μ, MOR) [1] = target: T1, human OPRM1 (μ, MOR) (Homo sapiens (Human), UniProt P35372); experiment: cell-based; format: cell-based; details: for EC50: PathHunter human OPRM1 Arrestin CHO-K1 cell line, read-out: β-Arrestin EC50; for Emax: OPRM1, read-out: β-Arrestin Emax
Method: The technology is based on Enzyme Fragment Complementation (EFC) with β-galactosidase (β-Gal) as the reporter. […] EA is fused to β-arrestin-2, and ED is fused to the C-terminus of the GPCR of interest. When a ligand binds and the GPCR is activated, β-arrestin-2 is recruited to the receptor resulting in an ED/EA complementation, restoring β-Gal activity, which is measured using chemiluminescence. For this assay, the PathHunter human OPRM1 (μ, MOR) Arrestin CHO-K1 cell line was used.

human OPRM1 (μ, MOR) [2] = target: T1, human OPRM1 (μ, MOR); experiment: cell-based; format: cell-based; details: for EC50: PathHunter human OPRM1 Arrestin CHO-K1 cell line, read-out: cAMP EC50; for Emax: OPRM1, read-out: cAMP Emax
Method: G-protein signaling was measured via second messenger cAMP modulation. Detection of cAMP modulation was accomplished in the PathHunter human OPRM1 (μ, MOR) Arrestin CHO-K1 cell line using the Dynamic2 cAMP Kit from Cisbio.

MOR [3] = target: T2, MOR (Homo sapiens (Human), UniProt P35372); format: cell-based; details: for ΔRA of compound: β-arrestin vs cAMP, from EC50 and Emax
Method: In certain embodiments, the ability of a compound to activate G-protein or β-arrestin is not an on/off switch for a given pathway, but rather a continuous function. To capture this, each compound is measured for activity in cell assays that are linked to β-arrestin recruitment and G-protein signaling. By comparing the activity between these two measures (accounting for both EC50 and maximal response reached, Emax) a relative activity (RA) value is determined.
In the case of MOR it is desirable to have high activation of the G-protein pathway while reducing activation of β-arrestin.

intestinal transit = experiment: Gastrointestinal motility (charcoal transit); details: rat, SC
Method: At 30 minutes post subcutaneous dosing, the animals were given a suspension of 5% charcoal in 10% gum arabic solution (2 ml/animal p.o.) and sacrificed 15 minutes later. The intestine was removed, and the length of the gut in cm (GL) as well as extent of charcoal movement from the pylorus to the beginning of the charcoal column in cm (CP) was measured.
Intestinal transit (IT) was calculated as IT=(CP/GL)×100%. A 30% or more (30) increase or decrease intestinal transit (IT), relative to the vehicle control group, was considered significant. The values in animals treated with test compounds compared with vehicle control group were also analyzed by using one-way ANOVA followed by Dunnett's test. Differences are considered statistically significant at P<0.05.

[4] = Respiratory depression test (O2 partial pressure); details: rat, SC, at 30 minutes, vehicle 96 mm Hg
place preference = experiment: Conditioned place preference; details: rat, SC
From the text: Although a number of different designs and apparatuses are used in this model, the basic characteristics of this task involve the association of a particular environment with drug treatment, followed by the association of a different environment with the absence of the drug (i.e., the drug's vehicle). A common variation of this design consists of a three-compartment chamber with the outer compartments being designed to have different characteristics (e.g., white vs. black walls, pine vs. corn bedding, horizontal grid vs. cross-grid flooring). […] On the following day, the rat is injected with the drug's vehicle and then placed in the opposite compartment. […] Afterward, a test session is conducted, which consists of placing the animal in the center compartment and then, after opening the gates to both of the outer compartments, recording the time the animal spends in each of the outer compartments during the session.
In certain embodiments, there are three days of adaptation where any preferences are assessed. Then, compartment assignments for drug or saline are based on any existing preferences. […] There are 8 days of training followed by the test day when both compartments are accessible and the computer counts how much time is spent in the respective compartment.

sedation = experiment: Accelerating RotaRod (sedation); details: rat, SC
tail flick response = experiment: Rat tail flick nociceptive pain model; format: in vivo; details: SC
Method: In rodents, the tail flick response to radiant heat is commonly used as a model to detect potentially useful analgesic agents.
Procedurally, the time (seconds) required to elicit a tail flick response induced by focused radiant heat is measured as the pain threshold in groups of 8 Sprague-Dawley (SD) male rats weighing 110±20 g. Prolongation by 50 percent or more (≥50) of the time required to elicit a tail flick response 15 and 30 minutes following administration of test substance indicates possible analgesic activity. Also, one-way ANOVA followed by Dunnett's test is applied for comparison between vehicle control and treatment groups.

[5] = healthy volunteers; cited from earlier work
MOR [6] = target: T2, MOR; details: cell-based assays; cited from earlier work
MOR [7] = target: T2, MOR; details: vs morphine; cited from earlier work
[8] = patients following bunionectomy; cited from earlier work

Row | SMILES | EC50 (human OPRM1 (μ, MOR) [1]) [µM] | EC50 (human OPRM1 (μ, MOR) [2]) [µM] | Bias Factor (ΔRA of compound relative to ΔRA of DAMGO) × 10 (MOR [3]) | ΔRA of compound (MOR [3]) | Emax (human OPRM1 (μ, MOR) [1]) [%] | Emax (human OPRM1 (μ, MOR) [2]) [%] | further results
1 | CN(C)C[C@H]1CN(Cc2ccc(F)cc2Cl)CC[C@]1(O)c1cccc(C(N)=O)c1 (single isomer, unassigned; ent-a) [Ent-A-syn-(6)] | 3.17 | 0.163 | −0.92 | −1.63 | – | – | β-Arrestin Emax (human OPRM1 (μ, MOR) [1]): 60%; cAMP Emax (human OPRM1 (μ, MOR) [2]): 132%
2 | CN(C)C[C@@H]1CN(Cc2ccc(F)cc2Cl)CC[C@@]1(O)c1cccc(C(N)=O)c1 (single isomer, unassigned; ent-b) [Ent-B-syn-(6), Ent-B-syn 3-(1-(2-chloro-4-fluorobenzyl)-3-((dimethylamino)methyl)-4-hydroxypiperidin-4-yl)benzamide] | 3.67 | 0.463 | −1.06 | −1.65 | – | – | β-Arrestin Emax (human OPRM1 (μ, MOR) [1]): 20%; cAMP Emax (human OPRM1 (μ, MOR) [2]): 111%
3 | CN(C)CC1CN(Cc2ccc(F)cc2Cl)CCC1(O)c1cccc(C(N)=O)c1 (centres unmarked) [(6), 3-[1-(2-Chloro-4-fluoro-benzyl)-3-dimethylaminomethyl-4-hydroxy-piperidin-4-yl]-benzamide] | 2.56 | 0.102 | −2.89 | −1.83 | 40 | 107 | –
4 | CN(C)CC1CN(CCc2ccccc2)CCC1(O)c1cccc(C(N)=O)c1 (centres unmarked) [(9), 3-(3-Dimethylaminomethyl-4-hydroxy-1-phenethyl-piperidin-4-yl)-benzamide] | 0.83 | 0.034 | −6.76 | −2.22 | 18 | 118 | –
5 | CN(C)CC1CN(Cc2ccsc2)CCC1(O)c1cccc(C(N)=O)c1 (centres unmarked) [(11), 3-(3-Dimethylaminomethyl-4-hydroxy-1-thiophen-3-ylmethyl-piperidin-4-yl)-benzamide] | 10.7 | 0.55 | −2.31 | −1.77 | 37 | 112 | –
6 | CN(C)CC1CN(CCc2ccsc2)CCC1(O)c1cccc(C(N)=O)c1 (centres unmarked) [(15), 3-(3-((Dimethylamino)methyl)-4-hydroxy-1-(2-(thiophen-3-yl)ethyl)piperidin-4-yl)benzamide] | > 100 | 0.067 | – | – | < 10 | 95 | –
7 | COc1ccc(CCN2CCC(O)(c3cccc(C(N)=O)c3)C(CN(C)C)C2)cc1 (centres unmarked) [(17), 3-(3-((Dimethylamino)methyl)-4-hydroxy-1-(4-methoxyphenethyl)piperidin-4-yl)benzamide] | > 100 | 0.467 | – | – | < 10 | 84 | –
8 | CN(C)CC1CN(CCc2ccc(O)cc2)CCC1(O)c1cccc(C(N)=O)c1 (centres unmarked) [(18), 3-(3-((Dimethylamino)methyl)-4-hydroxy-1-(4-hydroxyphenethyl)piperidin-4-yl)benzamide] | 3.1 | 0.16 | −3.73 | −1.91 | 24 | 103 | –
9 | CN(C)CC1CN(CCCc2ccccc2)CCC1(O)c1cccc(C(N)=O)c1 (centres unmarked) [(20), 3-[3-Dimethylaminomethyl-4-hydroxy-1-(3-phenyl-propyl)-piperidin-4-yl]-benzamide] | 0.27 | 0.01 | −7.37 | −2.28 | 14 | 103 | –
10 | CN(C)C[C@H]1CN(CCCc2ccc(F)cc2Cl)CC[C@]1(O)c1cccc(C(N)=O)c1 [(23a), 3-((3S,4R)-1-(3-(2-Chloro-4-fluorophenyl)propyl)-3-((dimethylamino)methyl)-4-hydroxypiperidin-4-yl)benzamide] | – | – | – | – | – | – | Reduction in transit relative to vehicle (intestinal transit; 4.5 mg/kg): no significant reduction in transit; Reduction in transit relative to vehicle (intestinal transit; 18 mg/kg): small reduction in transit; O2 partial pressure ([4]; 4.5 mg/kg): the same O2 partial pressure as vehicle; O2 partial pressure ([4]; 18 mg/kg): the same O2 partial pressure as vehicle; Preference for drug chamber over saline chamber (place preference; 18 mg/kg): no preference for the (23a) chamber over the saline chamber; Sedation, accelerating RotaRod (sedation; 4.5 mg/kg): no sedation; Sedation, accelerating RotaRod (sedation; 18 mg/kg): no sedation; Dose to reach the ED80 of morphine in rat tail flick (tail flick response): 4.5 mg/kg
11 | CN(C)C[C@H]1CN(CCc2ccsc2)CC[C@]1(O)c1cccc(C(N)=O)c1 [(41a), 3-((3S,4R)-3-((Dimethylamino)methyl)-4-hydroxy-1-(2-(thiophen-3-yl)ethyl)piperidin-4-yl)benzamide] | – | – | – | – | – | – | Reduction in transit relative to vehicle (intestinal transit; 5 mg/kg): no significant reduction in transit; Reduction in transit relative to vehicle (intestinal transit; 20 mg/kg): no significant reduction in transit; O2 partial pressure ([4]; 5 mg/kg): the same O2 partial pressure as vehicle; O2 partial pressure ([4]; 20 mg/kg): the same O2 partial pressure as vehicle; Preference for drug chamber over saline chamber (place preference; 20 mg/kg): no preference for the (41a) chamber over the saline chamber; Sedation, accelerating RotaRod (sedation; 5 mg/kg): no sedation; Sedation, accelerating RotaRod (sedation; 20 mg/kg): no sedation; Dose to reach the ED80 of morphine in rat tail flick (tail flick response): 5 mg/kg
12 | C[C@@H](NC(=O)[C@@H](N)Cc1ccc(O)cc1)C(=O)NCC(=O)N(C)[C@@H](Cc1ccccc1)C(=O)NCCO [DAMGO, H-Tyr-D-Ala-Gly-NMe-Phe-Gly-OH, reference compound] | – | – | – | – | 98 | – | –
13 | COc1ccsc1CNCC[C@@]1(c2ccccn2)CCOC2(CCCC2)C1 [oliceridine, N-[(3-methoxythiophen-2-yl)methyl]-2-[(9R)-9-pyridin-2-yl-6-oxaspiro[4.5]decan-9-yl]ethanamine] | – | – | – | – | – | – | On-target adverse effects (such as nausea, and decrease in respiratory drive) [5]: decreased on-target adverse effects; β-arrestin recruitment Emax (MOR [6]): 14%; G-protein signaling Emax (MOR [7]): 83%; Level of analgesia [8]: higher level of analgesia
